Several values for one entry are separate records, joined by “and”; a condition that tells them apart may be missing. Equal values may be shown once.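 All cell lines were grown in 96-well plates and treated with compound for 48 hours. The concentration for 50% growth inhibition is given as GI50. Definition used: TGI = concentration required for complete inhibition of growth.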

The subject of the first test is SK-OV-3 ovarian. As to the kind of experiment: inhibition of tumour cell growth, NCI panel, 48 h.
In turn, `CC(=O)OC1=CC(n2cc(F)c(=O)[nH]c2=O)OC(C)C1=O` (configuration not stated) came in with a TGI of over 100 µM.
Same read-out and setting: as for `NC1(C(=O)OCc2ccccc2)CCCC1`, the figure is 71.1 µM.
For `Cc1cc(/C=C/c2ccc3cc(N(C)C)ccc3[n+]2C)c(C)n1-c1ccccc1`, the GI50 is 0.142 µM and the TGI was found to be 1 µM.
Turning to `Cn1cnc([N+](=O)[O-])c1S(=O)(=O)Oc1cccc2ccccc12`, the GI50 is 46.9 µM and the TGI was over 100 µM.
Turning to `CCCC(=O)OC1CC(n2cc(F)c(=O)[nH]c2=O)OC1COP(=O)(OCC(Cl)(Cl)Cl)OCC(Cl)(Cl)Cl` (configuration not stated), the TGI is over 31.6 µM.
As for `Fc1cc2[nH]ncc2c2c3c(c(-c4cn[nH]c4)nc12)CCCC3`, the GI50 was 0.287 µM and the TGI is 1.24 µM.
`COc1cc(OC)cc(-c2cc(=O)c3c(OC)c(OC)c(OC)c(OC)c3o2)c1` had a TGI of 54.2 µM.
`CSc1nc(NC2OCC(OC(C)=O)C(OC(C)=O)C2OC(C)=O)c(N=CC=Nc2c(NC3OCC(OC(C)=O)C(OC(C)=O)C3OC(C)=O)nc(SC)[nH]c2=O)c(=O)[nH]1` (configuration not stated) returned a TGI of 80.1 µM.
Regarding `CN(C)CCSC1=Nc2ccc(Cl)cc2C(c2ccccc2Cl)=NC1`, the GI50 is 16.9 µM and 63.1 µM; the TGI was 33.6 µM and > 100 µM.
As to `O=C1OC(O)[C@@H]2[C@H]1[C@H]1CC[C@@H]2O1` (some centres not stated), the GI50 is over 100 µM and the TGI was over 100 µM.

The next test has as its system SN12C renal. Description: inhibition of tumour cell growth, NCI panel, 48 h.
Consider `CN(C(=O)c1ccc(C(F)(F)F)cc1)c1ccc(Oc2ccc3c(c2)cc(C(=O)N2CCN(Cc4ccc(OC(F)F)cc4)CC2)n3C)nc1`, for which the GI50 is over 100 µM and the TGI is over 100 µM.
Compound `O=S(=O)(CCn1c(Sc2ccccc2)c(Sc2ccccc2)c2ccccc21)c1ccccc1` registered a TGI of over 100 µM.
Take `O=c1[nH]c(Nc2nc3ccccc3[nH]2)nc(O)c1-c1ccccc1`: the TGI was over 100 µM.
In the case of `O=C(Nc1ccc(Cl)cc1)c1cccc(NC2=C(Cl)C(=O)N(Cc3ccccc3)C2=O)c1`, the GI50 was 7.79 µM and the TGI worked out at 24.2 µM.
The like results for `O=C(/C=C/c1ccncc1)c1cc(Cl)ccc1O` were, in that order, 23.4 µM and 68.4 µM.
As to `Nc1ncnc2n[nH]c(Nc3ccc(F)cc3)c12`, the GI50 is 35.6 µM and the TGI was over 100 µM.
On to `OCC#Cc1ccccc1C#Cc1ccccc1`, for which the GI50 was 8.79 µM and the TGI came out at 21.3 µM.
For `CCN(CC)c1ccc(-c2cc(-c3cc(OC)c(OC)c(OC)c3)nc(N3CCOCC3)c2C#N)cc1`, the GI50 was 0.805 µM and the TGI was over 100 µM.
For `CC(=O)OC1=CC(n2cc(F)c(=O)[nH]c2=O)OC(C)C1=O` (configuration not stated), the TGI was over 100 µM.
`NC1(C(=O)OCc2ccccc2)CCCC1` displayed a TGI of 54 µM.
Take `Cc1cc(/C=C/c2ccc3cc(N(C)C)ccc3[n+]2C)c(C)n1-c1ccccc1`: the GI50 was 0.159 µM and the TGI was determined as 0.636 µM.
`Cn1cnc([N+](=O)[O-])c1S(=O)(=O)Oc1cccc2ccccc12`: the GI50 was 5.71 µM and the TGI stood at 20.5 µM.
Turning to `CCCC(=O)OC1CC(n2cc(F)c(=O)[nH]c2=O)OC1COP(=O)(OCC(Cl)(Cl)Cl)OCC(Cl)(Cl)Cl` (configuration not stated), the TGI was over 100 µM.
Take `Fc1cc2[nH]ncc2c2c3c(c(-c4cn[nH]c4)nc12)CCCC3`: the GI50 is 1.06 µM and the TGI is 7.04 µM.
`COc1cc(OC)cc(-c2cc(=O)c3c(OC)c(OC)c(OC)c(OC)c3o2)c1` came in with a TGI of over 100 µM.
For `CSc1nc(NC2OCC(OC(C)=O)C(OC(C)=O)C2OC(C)=O)c(N=CC=Nc2c(NC3OCC(OC(C)=O)C(OC(C)=O)C3OC(C)=O)nc(SC)[nH]c2=O)c(=O)[nH]1` (configuration not stated), the TGI was over 100 µM.
Take `CN(C)CCSC1=Nc2ccc(Cl)cc2C(c2ccccc2Cl)=NC1`: the GI50 is 13.5 µM and > 100 µM; the TGI is 26.5 µM and > 100 µM.
Consider `O=C1OC(O)[C@@H]2[C@H]1[C@H]1CC[C@@H]2O1` (some centres not stated), for which the GI50 is over 92.3 µM and the TGI was over 100 µM.

A further test has as its system SNB-75 CNS. Description: inhibition of tumour cell growth, NCI panel, 48 h.
Take `CN(C(=O)c1ccc(C(F)(F)F)cc1)c1ccc(Oc2ccc3c(c2)cc(C(=O)N2CCN(Cc4ccc(OC(F)F)cc4)CC2)n3C)nc1`: the GI50 was 11.7 µM and the TGI is over 84 µM.
For the compound `O=S(=O)(CCn1c(Sc2ccccc2)c(Sc2ccccc2)c2ccccc21)c1ccccc1`, the TGI was over 100 µM.
In turn, `O=c1[nH]c(Nc2nc3ccccc3[nH]2)nc(O)c1-c1ccccc1` showed a TGI of over 100 µM.
`O=C(Nc1ccc(Cl)cc1)c1cccc(NC2=C(Cl)C(=O)N(Cc3ccccc3)C2=O)c1`: the GI50 was 8.88 µM and the TGI was 25.1 µM.
For `O=C(/C=C/c1ccncc1)c1cc(Cl)ccc1O`, the GI50 was 17.5 µM and the TGI turned out to be 32.2 µM.
`Nc1ncnc2n[nH]c(Nc3ccc(F)cc3)c12`: the GI50 was 31.7 µM and the TGI was over 100 µM.
For the compound `OCC#Cc1ccccc1C#Cc1ccccc1`, the GI50 was 14.6 µM and the TGI turned out to be 30.4 µM.
`CCN(CC)c1ccc(-c2cc(-c3cc(OC)c(OC)c(OC)c3)nc(N3CCOCC3)c2C#N)cc1`: the GI50 was 1.02 µM and the TGI was 12 µM.
The compound `CC(=O)OC1=CC(n2cc(F)c(=O)[nH]c2=O)OC(C)C1=O` (configuration not stated) showed a TGI of 99.5 µM.
`NC1(C(=O)OCc2ccccc2)CCCC1` returned a TGI of 35.1 µM.
Regarding `Cc1cc(/C=C/c2ccc3cc(N(C)C)ccc3[n+]2C)c(C)n1-c1ccccc1`, the GI50 is 0.211 µM and the TGI was found to be 1.9 µM.
The like results for `Cn1cnc([N+](=O)[O-])c1S(=O)(=O)Oc1cccc2ccccc12` were, in that order, 9.55 µM and 32.3 µM.
As for `CCCC(=O)OC1CC(n2cc(F)c(=O)[nH]c2=O)OC1COP(=O)(OCC(Cl)(Cl)Cl)OCC(Cl)(Cl)Cl` (configuration not stated), the TGI is 76.6 µM.
Turning to `Fc1cc2[nH]ncc2c2c3c(c(-c4cn[nH]c4)nc12)CCCC3`, the GI50 is 0.994 µM and the TGI stood at 2.32 µM.
Compound `COc1cc(OC)cc(-c2cc(=O)c3c(OC)c(OC)c(OC)c(OC)c3o2)c1` came in with a TGI of over 100 µM.
Regarding `CSc1nc(NC2OCC(OC(C)=O)C(OC(C)=O)C2OC(C)=O)c(N=CC=Nc2c(NC3OCC(OC(C)=O)C(OC(C)=O)C3OC(C)=O)nc(SC)[nH]c2=O)c(=O)[nH]1` (configuration not stated), the TGI came out at 57.4 µM.
In the case of `CN(C)CCSC1=Nc2ccc(Cl)cc2C(c2ccccc2Cl)=NC1`, the TGI is 33.1 µM and > 100 µM.
Consider `O=C1OC(O)[C@@H]2[C@H]1[C@H]1CC[C@@H]2O1` (some centres not stated), for which the GI50 was 45.3 µM and the TGI was over 100 µM.

The values above are taken from PubChem BioAssay (NCI).
